Reference: ChEMBL document CHEMBL1141695, “Discovery of thieno[2,3-c]pyridines as potent COT inhibitors” (Bioorg Med Chem Lett, 2008)

Columns and labels:
[1] = target: T1, Mitogen-activated protein kinase kinase kinase 8 (Homo sapiens, UniProt P41279); experiment: Inhibition of human recombinant COT by HTRF-based assay
[2] = target: Dual specificity mitogen-activated protein kinase kinase 1 (Homo sapiens, UniProt Q02750); experiment: Inhibition of MEK1 by HTRF assay
[3] = target: T1, Mitogen-activated protein kinase kinase kinase 8; experiment: Inhibition of COT by cell-based HTRF assay
[4] = Inhibition of ERK phosphorylation in LPS-stimulated mouse PEC by HTRF assay

T1 sequence (P41279 whole entry): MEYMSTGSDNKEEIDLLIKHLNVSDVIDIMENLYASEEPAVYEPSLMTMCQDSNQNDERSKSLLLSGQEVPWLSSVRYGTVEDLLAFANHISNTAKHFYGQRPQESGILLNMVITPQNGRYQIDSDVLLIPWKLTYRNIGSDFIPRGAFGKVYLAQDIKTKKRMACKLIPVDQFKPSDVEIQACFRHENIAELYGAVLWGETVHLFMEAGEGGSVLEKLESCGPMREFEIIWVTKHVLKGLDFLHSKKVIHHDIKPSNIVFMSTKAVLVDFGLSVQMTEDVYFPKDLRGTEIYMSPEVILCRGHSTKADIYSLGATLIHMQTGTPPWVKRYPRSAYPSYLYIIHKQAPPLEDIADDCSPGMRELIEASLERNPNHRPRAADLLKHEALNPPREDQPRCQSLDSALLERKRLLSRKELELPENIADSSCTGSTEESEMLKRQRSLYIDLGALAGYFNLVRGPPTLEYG
Chain of Dual specificity mitogen-activated protein kinase kinase 1 (Q02750 whole entry): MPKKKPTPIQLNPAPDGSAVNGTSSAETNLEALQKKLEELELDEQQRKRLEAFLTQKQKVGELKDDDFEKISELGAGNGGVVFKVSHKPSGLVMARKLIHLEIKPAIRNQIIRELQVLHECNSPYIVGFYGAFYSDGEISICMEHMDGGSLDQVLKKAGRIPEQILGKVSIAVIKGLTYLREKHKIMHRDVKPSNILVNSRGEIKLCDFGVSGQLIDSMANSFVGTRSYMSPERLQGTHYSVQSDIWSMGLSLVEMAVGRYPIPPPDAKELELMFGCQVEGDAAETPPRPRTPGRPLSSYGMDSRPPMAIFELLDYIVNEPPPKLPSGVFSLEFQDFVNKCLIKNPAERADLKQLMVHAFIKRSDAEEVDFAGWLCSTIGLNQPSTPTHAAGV

IC50 [1] [nM] | IC50 [2] [µM] | IC50 [3] [nM] | IC50 [4] [µM] | Structure (SMILES)
710 |  |  |  | Clc1ccc(Oc2cncc3sc(-c4nnn[nH]4)cc23)cc1
10 | 18 | 130 |  | NC(=O)c1ccc(-c2ccc(Oc3cncc4sc(-c5nn[nH]n5)cc34)cc2)cc1
15000 |  |  |  | c1ccc(-c2ccccc2Oc2cncc3sc(-c4nn[nH]n4)cc23)cc1
7500 |  |  |  | Cc1ccc(Oc2cncc3sc(-c4nn[nH]n4)cc23)cc1
610 |  |  |  | CC(C)(C)c1ccc(Oc2cncc3sc(-c4nn[nH]n4)cc23)cc1
240 | 23 |  |  | COc1cccc(-c2ccc(Oc3cncc4sc(-c5nnn[nH]5)cc34)cc2)c1
320 | 21.8 |  |  | COc1ccccc1-c1ccc(Oc2cncc3sc(-c4nnn[nH]4)cc23)cc1
1120 |  |  |  | O=c1nc(-c2cc3c(Oc4ccc(I)cc4)cncc3s2)[nH]o1
> 50000 |  |  |  | Nc1cc2c(Oc3ccc(I)cc3)cncc2s1
1600 |  |  |  | Brc1ccc(Oc2cncc3sc(-c4nnn[nH]4)cc23)cc1
90 | 2.4 | 2100 | > 50 | Clc1ccc(-c2ccc(Oc3cncc4sc(-c5nn[nH]n5)cc34)cc2)cc1
540 |  |  |  | O=C(NO)c1cc2c(Oc3ccc(I)cc3)cncc2s1
120 | 1.9 |  | > 50 | Clc1cccc(-c2ccc(Oc3cncc4sc(-c5nn[nH]n5)cc34)cc2)c1
310 | 21.2 |  | 47 | N#Cc1ccc(-c2ccc(Oc3cncc4sc(-c5nn[nH]n5)cc34)cc2)cc1
170 | 7.6 | 6500 | 11.3 | Fc1ccc(-c2ccc(Oc3cncc4sc(-c5nn[nH]n5)cc34)cc2)cc1
130 | 49 |  |  | COc1ccc(-c2ccc(Oc3cncc4sc(-c5nn[nH]n5)cc34)cc2)cc1
1700 |  |  |  | c1ccc(-c2cccc(Oc3cncc4sc(-c5nn[nH]n5)cc34)c2)cc1
150 | 9.7 | 4300 | 12 | c1ccc(-c2ccc(Oc3cncc4sc(-c5nn[nH]n5)cc34)cc2)cc1
50 | 48 |  | > 50 | CN(C)C(=O)c1ccc(-c2ccc(Oc3cncc4sc(-c5nn[nH]n5)cc34)cc2)cc1
40 | 14 |  |  | OCc1ccc(-c2ccc(Oc3cncc4sc(-c5nnn[nH]5)cc34)cc2)cc1
280 | 1.8 | 560 | 1.7 | FC(F)(F)c1ccc(-c2ccc(Oc3cncc4sc(-c5nn[nH]n5)cc34)cc2)cc1
> 50000 |  |  |  | CC(=O)Nc1cc2c(Oc3ccc(I)cc3)cncc2s1
150 | 1.5 |  | > 50 | Clc1ccccc1-c1ccc(Oc2cncc3sc(-c4nn[nH]n4)cc23)cc1
230 | 1.5 |  | 1.1 | Nc1ccc(-c2ccc(Oc3cncc4sc(-c5nn[nH]n5)cc34)cc2)cc1
2200 |  |  |  | c1ccc(Oc2cncc3sc(-c4nn[nH]n4)cc23)cc1
940 |  |  |  | O=C(O)c1cc2c(Oc3ccc(I)cc3)cncc2s1

Structure (SMILES) | IC50 [1] [nM] | IC50 [2] [µM] | IC50 [3] [nM] | IC50 [4] [µM]
Ic1ccc(Oc2cncc3sc(-c4nn[nH]n4)cc23)cc1 | 410 |  |  | 
